Measurements published in the COVID Moonshot data (paper PMC11187573), “Identification of SARS-CoV-2 Mpro inhibitors through deep reinforcement learning for de novo drug design and computational chemistry approaches” (RSC Medicinal Chemistry, 2024).

Key:
[1] = molecular target: SARS-CoV-2 Main Protease (SARS-CoV-2) (UniProt P0DTD1)
[2] = molecular target: SARS-CoV-2 Main Protease (SARS-CoV-2) (UniProt P0DTD1); remark: listed apart in the source

| Structure (SMILES) | inhibition ([1]; 50.0 µM) | inhibition ([2]; 20.0 µM) | inhibition ([2]; 50.0 µM) | relative solubility at 20 uM | relative solubility at 100 uM | inhibition ([1]; 20.0 µM) | IC50 [1] |
| --- | --- | --- | --- | --- | --- | --- | --- |
| CN(CC1COc2ccccc2O1)C(=O)c1cc(=O)[nH]c2ccc(F)cc12 (configuration not stated) | 0% | -4.21% | 1.67% | 0.99 | 0.99 |  |  |
| Cc1ccncc1NC(=O)CC(C)(C)NC(=O)c1cccc2[nH]ccc12 | 0% |  | -10.4% | 0.99 | 0.99 | 0% |  |
| COc1ccc(C2CC(c3cccs3)=NN2C(=O)CCl)cc1OC (configuration not stated) | 91.1% | 99.4% | 99.2% | 0.95 | 0.83 | 95.7% | 0.969 µM |
| C=CC(=O)Nc1cccc(OC2CC(=O)N2)c1 (configuration not stated) | 2.88% | 5.39% | 2.19% | 1 | 1 |  |  |
| CS(=O)(=O)Nc1cccc(C(=O)Nc2cccc(N3CCCC3=O)c2)c1 |  | 0.866% | 5.19% | 1 | 0.99 | 0% |  |
| C=CC(=O)N(c1ccc(C(C)(C)C)cc1)C(C(=O)Nc1cccc(F)c1C)c1cccnc1 (configuration not stated) | 0% |  | -14.8% | 1 | 0.98 | 0% |  |
| Cc1cc(C)cc(NC(=O)Cc2cnn(C)c2C)c1 | 0% | -12.1% | -5.28% | 1 | 1.01 |  |  |
| Cc1ccncc1NC(=O)c1cccc(NC(=O)Nc2cccnc2)c1 | 1.27% |  | -23.3% | 1 | 1 | 2.38% |  |
| Cc1ccncc1NC(=O)C1(c2cccc(Cl)c2)CC1 | 43.3% | 38.4% | 61.6% | 1.01 | 1 |  |  |
| C=CC(=O)N(c1ccc(C(C)(C)C)cc1)C(C(=O)NCCc1cccc(F)c1)c1cncc(C)c1 (configuration not stated) | 0% | 49% | 78.2% | 0.8 | 0.28 |  |  |
| C=CC(=O)N(c1ccc(C(C)(C)C)cc1)C(C(=O)NCCOC)c1cccnc1 (configuration not stated) | 70.3% | 35.7% | 52.7% | 1 | 1 | 25.7% |  |
| C=CC(=O)N(c1ccc(C(C)C)nc1)C(C(=O)Nc1ccc(OC)cc1C)c1cccnc1 (configuration not stated) |  | 6.56% | 10.4% | 0.98 | 0.93 | 0% |  |
| CC(=O)N1CCN(CC(=O)Nc2cccc(S(N)(=O)=O)c2)CC1 |  | -3.12% | 2.63% | 1 | 1 | 0% |  |
| C=CC(=O)N(c1ccc(C(C)(C)C)cc1)C(C(=O)NCC1CCCO1)c1cccnc1 (configuration not stated) | 25.6% | 70.8% | 44.1% | 1 | 0.99 | 0% |  |
| C=CC(=O)N(c1ccc(SC)cc1)C(C(=O)NC(C)(C)C)c1cccnc1 (configuration not stated) |  | 3.54% | 7.75% | 1 | 0.99 | 0% |  |
| C=CC(=O)N(c1ccc(N(C)C)c(C)c1)C(C(=O)NC(C)(C)C)c1cccnc1 (configuration not stated) | 14.4% | 2.89% | 8.8% | 0.98 | 0.95 | 0% |  |
| Cc1cc(C(C)(C)C)ccc1OC[C@H](O)Cn1cnccc1=O (stereo in doubt) | 0% | -3.67% | 16.5% | 1.01 | 1 |  |  |
| N#Cc1ccc(S(=O)(=O)N2CCN(C(=O)c3cc(=O)[nH]c4ccc(F)cc34)CC2)cc1 | 33.7% | 2.67% | 10.4% | 0.98 | 0.98 |  |  |
| CCn1c(=O)n(CC(=O)NCc2cnccn2)c2ccccc21 | 0% | 1.73% | 6.74% | 1 | 1 | 0% |  |

| Structure (SMILES) | inhibition ([1]; 50.0 µM) | inhibition ([2]; 20.0 µM) | inhibition ([2]; 50.0 µM) | relative solubility at 20 uM | relative solubility at 100 uM | inhibition ([1]; 20.0 µM) | IC50 [1] |
| --- | --- | --- | --- | --- | --- | --- | --- |
| C=CC(=O)N(c1ccc(C(C)OC)cc1)C(C(=O)Nc1c(C)cccc1CC)c1cccnc1 (configuration not stated) |  | 5.9% | 3.94% | 0.96 | 0.87 | 0% |  |
| O=C(Cc1ccc2[nH]c(=O)[nH]c2c1)NC1(CNC(=O)c2cnc[nH]2)CC1 | 76.6% | 6.85% | 3.02% | 1 | 1 |  | 27.3 µM |
| O=C(Nc1nncn1C1CC1)[C@H]1CCOc2ccc(Cl)cc21 (stereo in doubt) | -19.4% | -13.3% | -7.61% | 1.01 | 1 |  |  |
| CC(=O)N1CCN(C(=O)Cc2ccccn2)CC1 | 0% | -0.517% | 3.52% | 1 | 1 | 0% |  |
| C=CC(=O)N(c1ccc(C(C)(C)C)cc1)C(C(=O)NC1CCCC1)c1cccnc1 (configuration not stated) | 1.68% | -10.5% | -12.8% | 1.01 | 1 | 0% |  |
| Cc1ccncc1NC(=O)[C@@H]1CNC(=O)O1 (stereo in doubt) | 8.86% | 1.35% | 1.36% | 1 | 1 |  |  |
| O=C(C1CCN(c2ccncc2)CC1)N1CCCCC1 | -0.3% |  | -18.6% | 0.99 | 1 | 0% |  |
| CNC(=O)OC1CCN(C(=O)c2ccncc2)CC1 | 2.15% |  | -25.3% | 1 | 1 | 0.65% |  |
| Cc1ccc(C)c(NC(=O)[C@H]2CNC(=O)C2)c1 (stereo in doubt) | 0% | -14.9% | -9.38% | 0.98 | 0.98 |  |  |
| O=C(C1CCCN1C(=O)c1ccccc1)N1CCOCC1 (configuration not stated) | 0% |  | -28% | 1 | 1 | 0% |  |
| O=C(NCc1cccnn1)NC(Cc1ccccc1)c1cccs1 (configuration not stated) | 0% |  | 13.9% | 1 | 1 | 0% |  |
| NS(=O)(=O)c1ccc(N2CCC(CN3CCCCC3)CC2)cc1 | 22.7% | -23.1% | -2.58% | 1 | 1.01 |  |  |
| C=CC(=O)N(c1ccc2cc[nH]c2c1)C(C(=O)NC(C)(C)C)c1cccnc1 (configuration not stated) |  | 5.38% | 10.5% | 0.84 | 0.93 | 0% |  |
| CS(=O)(=O)NCCc1cccc(O)c1 | 1.46% | -1.8% | 0.0445% | 1 | 1 | -2.45% |  |
| Cc1ccncc1NC(=O)C1C2CCOCC21 (configuration not stated) | 0% | -18.9% | -10.8% | 1 | 1 |  |  |
| Cc1ccnc(C)c1NC(=O)NCc1cccc(N2CCOCC2)c1 | 0% | 2.7% | -9.74% | 1 | 1 |  |  |
| Cc1ncncc1NC(=O)C(c1cccc(Cl)c1)C(C)C (configuration not stated) | 46.5% | 3.52% | 20.6% | 1 | 0.99 |  |  |
| C=CC(=O)N(c1ccc(C(C)(C)C)cc1)C(C(=O)NCCSC)c1cccnc1 (configuration not stated) | 63.9% | 38.5% | 68.9% | 1 | 0.99 | 56% | 65.4 µM |
